Measurements taken from patent publication US20090298838A1, “Method for Determination of Effective Dose of Methotrexate” (StaGen Co., Ltd., priority 2005, published 2009).
Marks after values point to notes of the source that are not given here.

What was measured:
[1] = test system: patients suffering from rheumatoid arthritis; assay: Relationship between genotype of A1298C polymorphism in the MTHFR gene and dose of methotrexate 12 months after start of administration (157 patients); type: in vivo, human; conditions: for Risk ratio of high dose: high dose = more than 6 mg/week at 12 months
Protocol: Target patients were 157 patients (M/F=24/133) suffering from rheumatoid arthritis who were attending to Institute of Rheumatology Tokyo Women's Medical University Hospital. All of those patients were different from patients examined in Non-Patent Document 3.
Examinations were performed on genotypes of A1298C in the MTHFR gene in these 157 patients suffering from rheumatoid arthritis and doses of methotrexate to the patients 12 months after a start of administration.
Genomic DNA was extracted from leukocytes in peripheral blood of each patient suffering from rheumatoid arthritis. From the genomic DNA, a DNA region including A1298C in the MTHFR gene was amplified by PCR. The primers shown in SEQ ID NO: 1 and SEQ ID NO: 2 in Sequence Listing were used for the amplification.
The DNA amplification reaction was performed in a system of a total volume of 50 μl, which contains 5 μl of 10×PCR Buffer (Applied Biosystem, Japan), 0.5 μl (=2.5 U) of AmpliTaq Gold (Applied Biosystem, Japan), 5.01 of 8 mM dNTP (200 μM of each dNTP), and 1 μl of each 10 pmole primer (0.2 μM of each primer). Conditions of the PCR included: totally 34 cycles of denaturing at 95° C. for 10 minutes, of reactions each at 95° C. for 30 seconds, at 65° C. for 30 seconds, and at 72° C. for 60 seconds; and final extension at 72° C. for 7 minutes.
The products amplified by the PCR were cut by the restriction enzyme Fnu4I and subjected to electrophoresis to examine whether they were cut or not, to thereby determine the genotypes (A/A, A/C, C/C) in each patient.
Alleles and genotypes in group were compared by using Fisher's exact test for statistic analysis and Chi-square test, and Excel was used as a statistical software.
In the present Example, a dose of more than 6 mg/week 12 months after the start of the administration of the methotrexate was defined as a high dose, and otherwise defined as a low dose. Individuals were classified into A/A, A/C, and C/C based on the genotypes of A1298C polymorphism in the MTHFR and summarized to a relationship between the genotypes and the high dose. As shown in FIG. 1 and Table 2, a ratio of the high dose of the methotrexate was high in the order of A/A>A/C>C/C in the genotypes. […] A possibility that patients having the A/A genotype are required to have a high dose of the methotrexate is 49%. Compared with this, possibilities of patients having the A/C genotype and patients having the C/C genotype were 28% and 13%, respectively (Table 2 and FIG. 1). There were a difference of 1.7 (risk ratio, P<0.05) between A/A and A/C, and a difference of 3.8 (risk ratio, P<0.05) between A/A and C/C.
Table 3 and FIG. 2 show a relationship between the A/A genotype of A1298C polymorphism in the MTHFR and a dose and a relationship between the other genotypes (A/C and C/C) and a dose in all the subjects of the patients suffering from the rheumatoid arthritis. In the present reference example, the dose of more than 6 mg/week 12 months after the start of the administration of the methotrexate was defined as a high dose, and otherwise defined as a low dose. Genotypes of A1298C polymorphism in the MTHFR were classified into A/A and other genotype and summarized to a relationship between the genotypes and the high dose.

[2] = test system: patients suffering from the rheumatoid arthritis; conditions: A/A genotype (68 individuals) versus A/C and C/C (31 individuals); administration for at least 3 months; cited from earlier work

In the case of CN(Cc1cnc2nc(N)nc(N)c2n1)c1ccc(C(=O)N[C@@H](CCC(=O)O)C(=O)O)cc1 [methotrexate], the “Ratio of high dose” value ([1]; A/A genotype, final dose more than 6 mg/week 12 months after start of administration) is reported as 0.485*, the “Ratio of high dose” value ([1]; A/A genotype, final dose more than 6 mg/week 12 months after start of administration, listed as MTX) is reported as 0.485*,** and the “Possibility that patients are required to have a high dose” value (“Possibility that patients are required” below) ([1]; A/A genotype, more than 6 mg/week at 12 months) is reported as 49%. For the same molecule, the “Risk ratio of high dose” value ([1]; A/A versus A/C genotype) was 1.7, the “Risk ratio of high dose” value ([1]; A/A versus C/C genotype) was 3.8 and the “Ratio of high dose” value ([1]; A/C + C/C genotypes, dose more than 6 mg/week 12 months after start of administration) was 0.259}. For the same molecule, the “Ratio of high dose” value ([1]; A/C genotype, final dose more than 6 mg/week 12 months after start of administration) was 0.283*, the “Possibility that patients are required” value ([1]; A/C genotype, more than 6 mg/week at 12 months) was 28% and the “Ratio of high dose” value ([1]; C/C genotype, final dose more than 6 mg/week 12 months after start of administration) was 0.125**. For the same molecule, the “Possibility that patients are required” value ([1]; C/C genotype, more than 6 mg/week at 12 months) was 13%, the “Ratio of high dose” value ([1]; Total, all genotypes (157 persons), final dose more than 6 mg/week 12 months after start of administration) was 0.408 and the “Individuals classified to a high dose” value ([1]; either A/C or C/C genotype, more than 6 mg/week at 12 months) was 26%. For the same molecule, the “Proportion ratio of patients administered more than 5 mg/week” value [2] was 1.78.
